Results as given in patent publication US9492545B2, “Compositions of statins and omega-3 fatty acids” (Omthera Pharmaceuticals, Inc., priority 2012, dated 2016).

Tests used:
[1] = Stability testing of statins dissolved in PUFA free acid solvent system at 25° C., 60% RH (Example 5); type: physicochemical
Description: The compositions were then mixed until full dissolution was observed, using a magnetic stir bar and sonication for 30-60 second intervals, taking care to maintain a nitrogen headspace over the solution throughout processing. […] Vials were covered with foil to protect from light and stored at 25° C., 60% RH. One vial of each of the three compositions was retrieved at each timepoint for testing. Procedures as listed in the USP Monograph for Omega-3-Acid Ethyl Ester Capsules were followed for measuring quantities of acid value, peroxide value, and absorbance for fats and fixed oils.

[2] = Solubility of statins in PUFA free acid solvent system, HPLC of supernatant (Example 4); type: physicochemical; details: 2 mL PUFA free acid solvent; after addition of about 313 mg; before overnight standing
Description: For this study, ten vials were prepared such that 5 vials contained 2 mL of Lovaza oil and 5 vials contained 2 mL of PUFA free acid solvent system. About 20 mg of each statin were added to one Lovaza oil vial and to one PUFA free acid solvent system vial. Vials containing the samples were blanketed with nitrogen, then sealed. The vials were then sonicated for 1 hour or until contents appeared clear. After sonication, vials which remained clear received additional 20 mg aliquots of their respective statin and were again blanketed with nitrogen. […] The samples were centrifuged and the supernatant was assayed for the respective statin by HPLC.

[3] = Solubility of statins in omega-3 ethyl ester solvent system, Lovaza fill (Example 3); details: sonicated 1 hour, overnight, supernatant by HPLC
[4] = Solubility of statins in various pH buffers (Example 1)

Row | Statin in oil, content ([1]; t = 0) | Statin in oil, percent of total ([1]; t = 0) | Statin in oil, content ([1]; t = 1 week) | Statin in oil, percent of total ([1]; t = 1 week) | Statin in oil, content ([1]; t = 2 week) | Statin in oil, percent of total ([1]; t = 2 week) | Appearance of vial after repeated statin additions and sonication [2] | Initial solubility in PUFA ethyl ester solvent system, Concentration [3] | Solubility ([4]; acid phthalate buffer pH 4.0, T = 1 Week) | pH of maximal aqueous solubility ([4]; across the tested pH buffers) | Aqueous solubility (in words) ([4]; overall across pH buffers, rosuvastatin at time zero) | Compound
1 | 8.738 mg/g | 100% | 8.275 mg/g | 100% | 7.839 mg/g | 100% |  |  |  |  |  | CC(C)c1c(C(=O)Nc2ccccc2)c(-c2ccccc2)c(-c2ccc(F)cc2)n1CC[C@@H](O)C[C@@H](O)CC(=O)[O-].CC(C)c1c(C(=O)Nc2ccccc2)c(-c2ccccc2)c(-c2ccc(F)cc2)n1CC[C@@H](O)C[C@@H](O)CC(=O)[O-].[Ca+2] [Atorvastatin, Atorvastatin Calcium]
2 |  |  |  |  |  |  | still remained clear |  |  |  |  | CC[C@H](C)C(=O)O[C@H]1C[C@H](O)C=C2C=C[C@H](C)[C@H](CC[C@@H](O)C[C@@H](O)CC(=O)O)[C@H]21 [Pravastatin Sodium]
3 | 6.481 mg/g | 100% | 6.416 mg/g | 100% | 6.505 mg/g | 100% |  | 1 µg/mL | 0.002 | ~7.0 | significant aqueous solubility | CC(C)c1nc(N(C)S(C)(=O)=O)nc(-c2ccc(F)cc2)c1/C=C/[C@@H](O)C[C@@H](O)CC(=O)[O-].CC(C)c1nc(N(C)S(C)(=O)=O)nc(-c2ccc(F)cc2)c1/C=C/[C@@H](O)C[C@@H](O)CC(=O)[O-].[Ca+2] [Rosuvastatin, Rosuvastatin Calcium]
